# Measured values as given in patent US20150104868A1, “Methods of Maintaining and Improving Biological Cell Function and Activity” (GARGILL INCORPORATED, priority 2012, published 2015).
# Tests used:
# [1] = tested on: erythrocytes; assay: Radical-induced hemolysis of erythrocytes; type: cell-based; settings: erythrocytes exposed to hyperglycemic conditions, 24 h incubation
# [2] = tested on: 7B2, PC1/3, PC2; assay: RT-PCR gene expression of insulin production related genes in 1.1E7 cells; type: cell-based, human; settings: 1.1E7 cells, 10, 30, 45 mM glucose, 24 hours or 7 days, 5 mM ERT
# Protocol: Cell culture: Human 1.1E7 beta cells were cultured in RPMI 1640 medium containing 10% fetal calf serum, 2 mM L-Glutamine and 1% penicillin/streptomycin. Cells were maintained at 37° C. in a 5% CO2 atmosphere.
# Gene expression analysis: RNA was isolated from Qiazol suspended cells according to the manufacturer's protocol and quantified spectrophotometrically. Reverse transcription reaction was performed using 500 ng of RNA, which was reverse-transcribed into cDNA using iScript cDNA synthesis kit. Next, real time PCR was performed with a BioRad MyiQ iCycler Single Color RT-PCR detection system using Sensimix™Plus SYBR and Fluorescein, 5 μl diluted (10×) cDNA, and 0.3 μM primers in a total volume of 25 μl. PCR was conducted as follows: denaturation at 95° C. for 10 minutes, followed by 40 cycles of 95° C. for 15 seconds and 60° C. for 45 seconds. After PCR a melt curve (60-95° C.) was produced for product identification and purity. Actin was included as internal control. Data were analyzed using the MyIQ software system (Bio-Rad Laboratories BV, Veenendaal, the Netherlands) and were expressed as relative gene expression (fold change) using the 2^ΔΔCt method.
# PC1/3 and PC2 are proprotein or prohormone covertases. […] 7B2 is a small neuroendocrine protein that is required for the production of active prohormone convertase 2 (PC2)
# [3] = tested on: Beta cells (Cell line: HIT-T15); assay: HIT-T15 beta cell viability (trypan blue, Countess); type: cell-based; settings: 6, 15 or 30 mM glucose 24 hours, with or without 5 mM ERT
# Protocol: Beta cells (Cell line: HIT-T15) were obtained from supplier ATCC. The cells were seeded in 24 well plate (300,000 cells/well). After overnight attaching, the medium was removed and the cells were washed with HBSS. […] After 1 hour incubation, glucose solution was added to a final concentration of 6, 15, or 30 mM in the wells. Subsequently, the cells were incubated for 24 hours. After incubation, all cell material including medium and HBSS was collected and centrifuged (5 minutes, 500×g). The supernatant was removed and the cells were resuspended in 500 μl HBSS. The cell suspensions were diluted 1:1 in 0.4% trypan blue dye and loaded in a Countess Chamber. The cells were counted using the Countess cell counter, which calculated the viability (function and activity) of the cells.
# [4] = tested on: Geotrichum candidum cells (GCC); assay: Function and activity of freeze-dried Geotrichum candidum culture; type: cell-based
# Text: A starter culture with Geotrichum candidum cells (GCC) was produced by ID growing GCC in a medium containing 10% glucose and other nutrients. […] The function and activity of GCC was reduced during such preservation process. […] Function and activity was expressed by measuring how many doses GCC culture with a standardized amount of activity and function can be obtained per liter fermentation broth.
# [5] = in vivo, po; cited from earlier work
# [6] = tested on: HUVEC cells; assay: Lipid peroxidation: malondialdehyde (MDA) in HUVEC; type: cell-based, human; settings: 30 mM glucose, with or without 5 mM ERT
# Protocol: The prepared cells were seeded in 6 well plates and T75 flasks and grown until 80% confluence. The medium was removed, and the cells were washed with Hank's Balanced Salt Solution (HBSS). […] The vehicle solution is the solvent for the test compounds, in this case being the medium without supplements. […] The cells described above were also incubated for 24 hours with a 7 mM, normal glucose (NG) solution or in some instances, with a 15 mM, intermediary glucose (IG) solution. See, for example, FIG. 6. Subsequently, the cells were incubated for 24 hours. The same protocol was used for incubation with Nε-(carboxymethyl)lysine (CML, final concentration 1 micromolar) and 1,3-morpholino sidnonimine (SIN-1, final concentration 0.5 mM).
# [7] = tested on: HUVEC cells; assay: Oxidative damage: protein carbonyls in HUVEC; type: cell-based, human; settings: HG 30 mM glucose 24 h, with or without 5 mM ERT/MAN
# Protocol: The prepared cells were seeded in 6 well plates and T75 flasks and grown until 80% confluence. The medium was removed, and the cells were washed with Hank's Balanced Salt Solution (HBSS). […] The vehicle solution is the solvent for the test compounds, in this case being the medium without supplements. […] The cells described above were also incubated for 24 hours with a 7 mM, normal glucose (NG) solution or in some instances, with a 15 mM, intermediary glucose (IG) solution. See, for example, FIG. 6. Subsequently, the cells were incubated for 24 hours. The same protocol was used for incubation with Nε-(carboxymethyl)lysine (CML, final concentration 1 micromolar) and 1,3-morpholino sidnonimine (SIN-1, final concentration 0.5 mM). […] Hyperglycemia is strongly associated with oxidative stress, an imbalance between the formation of reactive oxygen species and the present antioxidants. Excess reactive oxygen species react with critical cellular targets, viz. membrane lipids, proteins and (deoxy)ribonucleic acids. […] Accordingly, one of the targeted assays included studying a comparison of HG to HGERT conditions, where the oxidative damage was evaluated showing that the protein carbonyls decreased from 6.55 nM/mg protein with HG to 3.77 with […]=0.089). Protein carbonyls are end products of reactions between proteins and reactive oxygen species (ROS), formed during oxidative stress. […]
# [8] = tested on: Superoxide dismutases (total SOD, SOD1, SOD2); assay: SOD activity, expression and protein levels in HUVEC; type: cell-based, human
# Text: One of the reactive oxygen species of which the production is likely to be increased during hyperglycemia is the superoxide radical (O2•—), potentially due to an over-activation of the mitochondrial respiratory chain. Superoxide dismutases (SODs) constitute a family of enzymes that effectively reduces the amount of superoxide radicals by turning them into hydrogen peroxide and oxygen. SODs occur in the cytoplasma (copper, zinc SOD or SOD1) and in the mitochondrion (manganese SOD or SOD2). A third form (SOD3 or EC-SOD) is found extracellularly. […] Accordingly, the expression protein and activity levels of SOD2 (which is the inducible SOD) SOD1 and total SOD activity were studied.
# The total SOD activity (U/mg protein), SOD1 activity, SOD2 activity, SOD2 expression (by RT-PCR), and SOD2 protein (by Western blot) were not affected by HGERT vs HG […].
smiles,measurement,setting,value
"OC[C@@H](O)[C@@H](O)CO [ERT, meso-1,2,3,4-tetrahydroxybutane]",radical-induced hemolysis,[1],able to inhibit radical-induced hemolysis
same,"gene expression of 7B2, PC1/3 and PC2",[2],improved the expression of genes involved in the conversion of (pre)proinsulin to insulin
same,viability (function and activity) of HIT-T15 cells,[3],attenuated this decrease significantly
same,Change in GCC cell activity and function (blank set at 100),[4]; 2% ERT,120
same,improvement of GCC activity and function,[4]; 2% ERT,20%
same,Doses/ltr fermentation broth,[4]; 2% ERT added before freeze drying,621 Doses/ltr
same,Change in GCC cell activity and function (blank set at 100),[4]; 3% ERT,126
same,improvement of GCC activity and function,[4]; 3% ERT,26%
same,Doses/ltr fermentation broth,[4]; 3% ERT added before freeze drying,652 Doses/ltr
same,Change in GCC cell activity and function (blank set at 100),[4]; 5% ERT,107
same,increase of GCC activity and function,[4]; 5% ERT,8%
same,Doses/ltr fermentation broth,[4]; 5% ERT added before freeze drying,555 Doses/ltr
same,excretion,[5],excreted unchanged in the urine
same,metabolism,[5],not metabolized
same,"malondialdehyde (MDA), end product of lipid peroxidation",[6],Neither the exposure of the HUVEC cells to 5 mM ERT and 30 mM glucose (HGERT) nor to HG aloneaffected
same,protein carbonyls,[7],3.77 nM/mg protein
same,"total SOD activity, SOD1 activity, SOD2 activity, SOD2 expression (RT-PCR), SOD2 protein (Western blot)",[8]; HGERT vs HG,not affected
same,transcription and protein levels of SOD2,[8]; HUVEC,did not affect transcription or the protein levels of SOD2
same,total superoxide dismutase activity,"[8]; hyperglycemic conditions, effect not significant",appeared to increase the total superoxide dismutase activity
